The target in experiment [1] is T1, IMPDH II (Homo sapiens, UniProt P12268). Put plainly: Inhibition constants of ligand inhibitors: NADH formation at 340 nm, 10 minutes, 40° C. The conditions noted are these: IMPDH II 0.00065 U/ml, non-linear curve fit. In kind it is biochemical.
Experiment [2] has as its target T1, IMPDH II. Put plainly: IC50 by slightly different method: enzyme rate on HITACHI 917 as in Examples 20 and 29, no antibody, saline sample. In kind it is biochemical. On the set-up: made in house; host or cells: E. coli. The note with it: values marked *: HITACHI 917 method. The protocol:
One liter of an enzyme reagent, or second reagent, was prepared as follows. Approximately 800 ml deionized water was dispensed into a container and 168.8 grams of NaTAPSO was added and completely dissolved. Next, 1.15 grams of TCEP was dissolved. Next 31.4 grams of IMP was dissolved, then 2.23 grams of Na2EDTA were dissolved. Next 1.0 gram of SUTTOCIDE A was dissolved. The volume was adjusted to one liter with deionized water. Enough recombinant human IMPDH-II was added (as a 35% ammonium sulfate precipitate of an E. coli lysate supernatant) and dissolved completely in order to achieve a change in absorbance at 340 nm of 780×10^−4 over 5 minutes at 37° C. […]
(§1) An HITACHI 917 analyzer (Roche Diagnostics Corp., Indianapolis) was programmed to dispense 3 μl of sample and 150 μl of antibody reagent into a 37° C. cuvette, which were then mixed and incubated for 5 minutes after which time 150 μl of enzyme reagent was added and mixed. The rate at 340 nm (mA/min) was calculated during the period 3 minutes 13 seconds to 4 minutes 42 seconds (read window 29-34) following enzyme reagent addition.
One liter of a second reagent was prepared as follows. […] Enough recombinant human IMPDH-II was added (as a 35% ammonium sulfate precipitate of an E. coli lysate supernatant) and dissolved completely in order to achieve a change in absorbance at 340 nm of 3100×10^−4 over 5 minutes at 37° C. […]

Experiment [3] deals with T1, IMPDH II. Nature of the experiment: Homogeneous enzyme immunoassay with ligand-inhibitor conjugate (thyroxine and theophylline). The conditions noted are these: compared with MPA-theophylline. In kind it is biochemical. On the set-up: made in house; host or cells: E. coli. The method, then:
as §1
Saline samples spiked with theophylline were assayed using the method of the present invention. Theophylline (Sigma Chemical) was first dissolved in saline (1 mg/10 ml) and then diluted to achieve concentrations of 0, 5, 10, 20, 40 and 50 μg/ml. An HITACHI 717 analyzer (Roche Diagnostics Corp., Indianapolis) was programmed to dispense 3 μl of sample and 150 μl of first reagent into a 37° C. cuvette, which were then mixed and incubated for 5 minutes, after which time 150 μl of second reagent was added and mixed. The difference in absorbance at 340 nm was calculated from the initial addition of the second reagent to 5 minutes following the second reagent addition.
J. Org. Chem. 61, 2236-2241, (1996).

The subject of experiment [4] is IMPDH. Put plainly: Sensitivity of mycophenolic acid inhibition of IMPDH. It is filed as biochemical.
Experiment [5] concerns the target IMPDH-I (Homo sapiens, UniProt P20839). The note with it: read-out: Ki (IC50), J. Biol. Chem. 268, 27286-27290 (1993); cited from earlier work.
Experiment [6] concerns the target T1, IMPDH II. Put plainly: IMPDH activity as a function of ligand-inhibitor conjugate, antibody and analyte concentration (HITACHI 717, NADH at 340 nm). In kind it is biochemical. On the set-up: made in house; host or cells: E. coli. The protocol: One liter of an antibody reagent, or first reagent, was prepared as follows. Approximately 800 ml deionized water was dispensed into a container and 6.0 grams of ACES were added and dissolved. The pH was adjusted to 6.0 with 2N NaOH. Then 0.53 grams NAD were added and dissolved completely. Next 10 ml ascites anti-MPA monoclonal antibody was added. Then 0.95 grams sodium azide was added and dissolved, and finally 1.0 gram of SUTTOCIDE A (GAF Chemicals Corp.) was added and dissolved. The volume was adjusted to one liter with deionized water.
One liter of an enzyme reagent, or second reagent, was prepared as follows. Approximately 800 ml deionized water was dispensed into a container and 56.3 grams of NaTAPSO was added and completely dissolved. Then 81.6 grams of sodium acetate-3H2O were added and dissolved. Next, 1.15 grams of TCEP were added and dissolved. Next 0.319 grams of IMP were added and dissolved, then 2.23 grams of Na2EDTA were added and dissolved. Next 1.0 gram of SUTTOCIDE A was added and dissolved. The volume was adjusted to one liter with deionized water. Approximately 13.4 ml of recombinant human IMPDH-II were added (E. coli lysate) and dissolved completely in order to achieve a change in absorbance at 340 nm of 4400×10^−4 over 5 minutes at 37° C. Next 0.002 grams of ligand-inhibitor conjugate (MPA-MPA, Example 42) were added and dissolved.
Human plasma samples spiked with mycophenolic acid were assayed for MPA using the present invention. An HITACHI 717 analyzer (Roche Diagnostics Corp. Indianapolis) was programmed to dispense 3 μl of sample and 150 μl of antibody reagent into a 37° C. cuvette, which were then mixed and incubated for 5 minutes after which time 150 μl of enzyme reagent was added and mixed. The difference in absorbance at 340 nm was calculated from the initial addition of enzyme reagent to 5 minutes following enzyme reagent addition.
With sample set A, the reagents contained no antibody or ligand-inhibitor and produced maximum IMPDH activity. With sample set B, the enzyme reagent contained ligand inhibitor and was used to show the effect of ligand inhibitor on IMPDH activity.

pIC50, pKi: −log10 of the molar value.

IMPDH-I, sequence (P20839 whole entry): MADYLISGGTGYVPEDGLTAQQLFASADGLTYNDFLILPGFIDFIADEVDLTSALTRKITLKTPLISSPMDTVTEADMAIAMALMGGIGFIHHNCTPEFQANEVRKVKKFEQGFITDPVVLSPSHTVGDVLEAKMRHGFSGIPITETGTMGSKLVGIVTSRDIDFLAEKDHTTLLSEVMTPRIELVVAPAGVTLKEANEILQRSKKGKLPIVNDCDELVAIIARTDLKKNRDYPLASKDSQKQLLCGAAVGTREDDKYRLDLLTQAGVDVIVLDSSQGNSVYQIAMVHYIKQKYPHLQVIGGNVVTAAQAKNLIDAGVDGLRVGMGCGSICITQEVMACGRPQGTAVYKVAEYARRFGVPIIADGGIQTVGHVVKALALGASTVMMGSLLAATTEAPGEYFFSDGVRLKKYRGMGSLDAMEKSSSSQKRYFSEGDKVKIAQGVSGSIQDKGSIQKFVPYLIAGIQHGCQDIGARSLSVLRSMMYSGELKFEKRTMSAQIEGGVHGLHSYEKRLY

“5′-(digoxigenin-3-yl-β-amidomethyl)-MPA [16A]”: in experiment [1], the pIC50 (commonly the negative decadic logarithm of the IC50, by convention in mol/L) was 6.77.
In the case of “5′-(digoxigenin-3-yl-β-amidomethyl)-MPA [16B]”, the pIC50 in experiment [1] was 7.17.
On to “5′-[(digoxigenin-3-yl)-oxymethylcarbonyl-DADOO-carbonylmethyl]-MPA [compound 26]”, for which, in experiment [1], the pIC50 was 6.77. Against the preceding molecule, the pIC50 is 0.40 log units lower.
The molecule “5′-[(gentamicin[C1a]-N^1-carbonyl-oxy)-isoprenyl]-MPA” showed a pIC50 in experiment [1] of 6.18.
For “5′-[(gentamicin[C1a]-N^1-terephthaloyl)-amino-isoprenyl]-MPA [U]”, the pIC50 in experiment [1] is 6.57.
Molecule “5′-[(isoprenyloxycarbonylaminoethyleneamido)-thyroxine]-MPA [compound 11]” gave a pIC50 in experiment [2] of 7.08. For the same molecule, in experiment [3], the “sensitivity in an immunoassay” value is “greater sensitivity”.
In turn, “5′-[(phenytoin-3-butyramido)-isoprenyl]-MPA” showed a pIC50 in experiment [1] of 7.06.
As for “5′-[(theophylline-8-butyramidoethylaminocarbonyloxy)-isoprenyl]-MPA [compound 20]”, in experiment [2], the pIC50 is 6.60.
Consider `COc1c(C)c2c(c(O)c1C/C=C(\C)CCC(=O)O)C(=O)OC2` [MPA, mycophenolic acid], for which the “sensitivity of mycophenolic acid inhibition” value in experiment [4] was in the range of 10 to 20 nM. Also, in experiment [5], the pKi (as a rule, the Ki on a negative log10 scale, so that one unit is a factor of ten) was 7.43. Also, the “ΔA × 10^−4 @ 340 nm” value in experiment [6] (set A: sample MPA 5 μg/ml, no anti-MPA, no MPA—MPA) is on record as 1939 × 10^−4; in experiment [6] (set A: sample MPA 10 μg/ml, no anti-MPA, no MPA—MPA), 541 × 10^−4; in experiment [6] (set E: sample MPA 5 μg/ml, anti-MPA 1:100, no MPA—MPA), 4075 × 10^−4; in experiment [6] (set E: sample MPA 10 μg/ml, anti-MPA 1:100, no MPA—MPA) it was 3667 × 10^−4.
As to MPA-isoprenyl alcohol [3A], the pIC50 in experiment [1] is 7.32.
The molecule MPA-isoprenyl alcohol [3B] gave a pIC50 in experiment [1] of 7.89. This pIC50 is 0.57 log units higher than that of the molecule before.

The values are drawn from patent publication US6811998B2, “Conjugates of uncompetitive inhibitors of inosine monophosphate dehydrogenase” (priority 1999, dated 2004).
